Test results taken from patent publication US4426519A, “7-(2-Amino-4-thiazolyl)-acetamido cephalosporanic acids” (Roussel Uclaf, priority 1979, dated 1984).
Structures can show the parent of a compound that is named as a salt. Where two headings read alike, the source gives them in different places.

Key:
Assay in all cases: MIC, dilution in liquid medium
Assay type in all cases: cell-based
[1] = system: Proteus mirabilis (indol-) A 235
Protocol: (§1) The method used was a dilution of a liquid medium where a series of tubes received the same quantity of a sterile nutritive media and increasing doses of the test compounds were placed therein. Then each tube was seeded with a bacterial strain and was incubated for 24 to 48 hours at 37° C. in an oven. The increasing inhibition was determined by transillulumination to determine the minimum inhibiting concentration (MIC in μg/ml) and the results are reported in the following Tables.

[2] = system: Klebsiella pneumoniae Exp. 52 145
Protocol: as §1

[3] = system: Klebsiella pneumoniae 2 536 Resistant Gentamycine
Protocol: as §1

[4] = system: Escherichia Coli Resistant Tetracycline ATCC 11 303
Protocol: as §1

[5] = system: Streptococcus pyogenes A 561
Protocol: as §1

[6] = system: Staphylococcus aureus UC 1 128 Pen-resistant
Protocol: as §1

[7] = system: Escherichia Coli Resistant Gentamycine, Tobramycine R 55 123 D
Protocol: as §1

[8] = system: Escherichia Coli Exp. TO26 B6
Protocol: as §1

[9] = system: Bacillus subtilis ATCC 6 633
Protocol: as §1

[10] = system: Providencia Du 48
Protocol: as §1

[11] = system: Escherichia Coli sensitive Tetracycline ATCC 9 637
Protocol: as §1

[12] = system: Pseudomonas 3935 Exp.Sensible Gentamycine
Protocol: as §1

[13] = system: Enterobacter cloacae 681
Protocol: as §1

[14] = system: Serratia Resistant Gentamycine 2 532
Protocol: as §1

[15] = system: Salmonella typhimurium 420; conditions: Salmonella enterica
Protocol: as §1

[16] = system: Staphylococcus aureus ATCC 6 538 Pen Sensitive
Protocol: as §1

[17] = system: Staphylococcus aureus exp.n°54 146
Protocol: as §1

[18] = Enterobacter cloacae, 681, 24 h
[19] = Enterobacter cloacae, 681, 48 h

SMILES | MIC ([1]; 24 h) | MIC ([1]; 48 h) | MIC ([3]; 48 h) | MIC ([4]; ATCC11, 24 h) | MIC ([4]; ATCC11, 48 h) | MIC ([5]; A561, 24 h) | MIC ([5]; A561, 48 h) | MIC ([6]; UC1, 24 h) | MIC ([6]; UC1, 48 h) | MIC ([8]; 24 h) | MIC ([8]; 48 h) | MIC ([9]; ATCC6, 24 h, read-out: MIC) | MIC ([9]; ATCC6, 48 h) | MIC ([10]; DU48, 48 h, read-out: MIC) | MIC ([11]; ATCC9, 48 h) | MIC [13, 18] | MIC [13, 19] | MIC ([14]; 24 h) | MIC ([15]; 24 h) | MIC ([16]; ATCC6, 48 h) | also measured
Cn1nnnc1SCC1=C(C(=O)O)N2C(=O)C(NC(=O)/C(=N\OCCSC(=N)N)c3csc(N)n3)C2SC1 (stereo not drawn) [Example 4, Internal salt of the syn isomer of 3-[(1-methyl-1H-tetrazol-5-yl)-thiomethyl]-7-[2-(2-amino-4-thiazolyl)-2-(2-aminoiminomethylthioethoxyimino)-acetamido]-ceph-3-eme-4-carboxylic acid] | 0.2 µg/mL | 0.5 µg/mL | 5 µg/mL | 0.2 µg/mL | 0.2 µg/mL | 0.05 µg/mL | 0.05 µg/mL | 2 µg/mL | 2 µg/mL | 1 µg/mL | 1 µg/mL | 0.5 µg/mL | 2 µg/mL | 10 µg/mL | 2 µg/mL | 3 µg/mL | 3 µg/mL | 1 µg/mL | 2 µg/mL | 2 µg/mL | MIC ([2]; EXP.52145, 24 h): 1 µg/mL; MIC ([2]; EXP.52145, 48 h): 1 µg/mL; MIC ([3]; 24 h): 5 µg/mL; MIC ([7]; 24 h): 1 µg/mL; MIC ([7]; 48 h): 1 µg/mL; MIC ([10]; DU48, 24 h): 5 µg/mL; MIC ([11]; ATCC9, 24 h): 2 µg/mL; MIC ([12]; 24 h): 10 µg/mL; MIC ([12]; 48 h): 20 µg/mL; MIC ([14]; 48 h): 1 µg/mL; MIC ([15]; 48 h): 2 µg/mL; MIC ([16]; ATCC6, 24 h): 1 µg/mL; MIC ([17]; 24 h): 2 µg/mL; MIC ([17]; 48 h): 2 µg/mL
[N-]=[N+]=NCC1=C(C(=O)O)N2C(=O)C(NC(=O)/C(=N\OCCSC(=N)N)c3csc(N)n3)C2SC1 (stereo not drawn) [Example 5, Internal salt of syn isomer of 3-azidomethyl-7-[2-(2-amino-4-thiazolyl)-2-(2-aminoiminomethylthioethoxyimino)-acetamido]-ceph-3-eme-4-carboxylic acid] | 0.2 µg/mL | 0.2 µg/mL | 3 µg/mL | 0.2 µg/mL | 0.2 µg/mL | < 0.02 µg/mL | 0.05 µg/mL |  |  | 0.5 µg/mL | 0.5 µg/mL | 2 µg/mL | 3 µg/mL | 10 µg/mL |  | 3 µg/mL | 3 µg/mL |  |  |  | MIC ([2]; EXP.52145, 24 h, read-out: MIC): 1 µg/mL; MIC ([2]; EXP.52145, 48 h, read-out: MIC): 1 µg/mL; MIC ([3]; 24 h, read-out: MIC): 2 µg/mL; MIC ([6]; UC1, 24 h, read-out: MIC): 1 µg/mL; MIC ([6]; UC1, 48 h, read-out: MIC): 2 µg/mL; MIC ([7]; 24 h, read-out: MIC): 1 µg/mL; MIC ([7]; 48 h, read-out: MIC): 1 µg/mL; MIC ([10]; DU48, 24 h, read-out: MIC): 10 µg/mL; MIC ([11]; ATCC9, 24 h, read-out: MIC): 2 µg/mL; MIC ([11]; ATCC9, 48 h, read-out: MIC): 2 µg/mL; MIC ([14]; 24 h, read-out: MIC): 1 µg/mL; MIC ([14]; 48 h, read-out: MIC): 1 µg/mL; MIC ([15]; 24 h, read-out: MIC): 1 µg/mL; MIC ([15]; 48 h, read-out: MIC): 1 µg/mL; MIC ([16]; ATCC6, 24 h, read-out: MIC): 1 µg/mL; MIC ([16]; ATCC6, 48 h, read-out: MIC): 1 µg/mL; MIC ([17]; 24 h, read-out: MIC): 1 µg/mL; MIC ([17]; 48 h, read-out: MIC): 2 µg/mL
Cc1nnc(SCC2=C(C(=O)O)N3C(=O)C(NC(=O)/C(=N\OCCSC(=N)N)c4csc(N)n4)C3SC2)s1 (stereo not drawn) [Example 6, Internal salt of syn isomer of 3-[(2-methyl-1,3,4-thiadiazol-5-yl)-thiomethyl]-7-[2-(2-amino-4-thiazolyl)-2-(2-aminoiminomethylthioethoxyimino)-acetamido]-ceph-3-eme-4-carboxylic acid] | 1 µg/mL | 1 µg/mL | 5 µg/mL | 0.1 µg/mL | 0.1 µg/mL | 0.05 µg/mL | 0.05 µg/mL | 2 µg/mL | 2 µg/mL | 2 µg/mL | 2 µg/mL | 1 µg/mL | 2 µg/mL |  | 5 µg/mL |  |  | 2 µg/mL | 2 µg/mL | 2 µg/mL | MIC ([2]; EXP.52145, 24 h, read-out: MIC): 1 µg/mL; MIC ([2]; EXP.52145, 48 h, read-out: MIC): 1 µg/mL; MIC ([3]; 24 h, read-out: MIC): 5 µg/mL; MIC ([7]; 24 h, read-out: MIC): 1 µg/mL; MIC ([7]; 48 h, read-out: MIC): 1 µg/mL; MIC ([11]; ATCC9, 24 h, read-out: MIC): 5 µg/mL; MIC ([13]; Enterobacter cloacae, 681, 24 h, read-out: MIC): 10 µg/mL; MIC ([13]; Enterobacter cloacae, 681, 48 h, read-out: MIC): 10 µg/mL; MIC ([14]; 48 h, read-out: MIC): 3 µg/mL; MIC ([15]; 48 h, read-out: MIC): 3 µg/mL; MIC ([16]; ATCC6, 24 h, read-out: MIC): 1 µg/mL; MIC ([17]; 24 h): 2 µg/mL; MIC ([17]; 48 h): 2 µg/mL
